# Data published in publication PMC8037182, “Solvothermal Synthesis of Multiple Dihydropyrimidinones at a Time as Inhibitors of Eg5” (Molecules, 2021).
# Test system: Caco-2 cell line
# Test: Cytotoxicity MTS assay, Caco-2 cell line
# Assay type: cell-based
# Conditions: for OD490 Mean / OD490 Well 1 / OD490 Well 2 / OD490 Well 3: Caco-2 cell line; for IC50: MTS assay, 24 h exposure
# Description: The positive compounds (IC50 < 100 μM) obtained from the primary Eg5 motor protein ATPase assay were tested for antiproliferative activity in vitro against Caco-2 cell line, Hela cell line, L929 cell line and T24 cell line by performing MTS assay. Cells were introduced into 96-well plates at a density of 1000 cells per well. After 24 h incubation, the cells were exposed with compounds at final concentrations ranging from 0.5 to 100 µM for 24 h. DMSO was used at a final concentration of 0.025% as blank control, monastrol was used as the positive control. Then 20 µL (CellTiter 96® AQueous One Solution Promega, Madison, WI, USA) reagent was added in each well. After 2 h at 37 °C in a 80% humidified, 5% CO2 atmosphere, the absorbance at 490 nm was recorded using a microplate reader (BIO-RAD iMark^TM). The results were obtained in three independent duplicate experiments. The primary data were shown in Supplementary Materials Tables S4–S7. The IC50 values for these compounds were calculated from a non-linear regression graph plotted between the percentage of cell viability and concentration with SPSS17.0 software.
compound,measurement,setting,value
CCOC(=O)c1c(C2NC(=O)NC(C)=C2C(=O)Nc2ccccc2OC)[nH]c(C(=O)OC)c1C (centres unmarked) [D1],OD490 Mean,"0.5μM, first assay",0.6107
same,OD490 Well 1,"0.5μM, first assay",0.5649
same,OD490 Well 2,"0.5μM, first assay",0.5391
same,OD490 Well 3,"0.5μM, first assay",0.7282
same,OD490 Mean,"0.5μM, second assay",0.6066
same,OD490 Well 1,"0.5μM, second assay",0.6391
same,OD490 Well 2,"0.5μM, second assay",0.6324
same,OD490 Well 3,"0.5μM, second assay",0.5484
same,OD490 Mean,"0.5μM, third assay",0.6142
same,OD490 Well 1,"0.5μM, third assay",0.6774
same,OD490 Well 2,"0.5μM, third assay",0.5749
same,OD490 Well 3,"0.5μM, third assay",0.5903
same,OD490 Mean,"1μM, first assay",0.6086
same,OD490 Well 1,"1μM, first assay",0.6046
same,OD490 Well 2,"1μM, first assay",0.6209
same,OD490 Well 3,"1μM, first assay",0.6002
same,OD490 Mean,"1μM, second assay",0.6031
same,OD490 Well 1,"1μM, second assay",0.6102
same,OD490 Well 2,"1μM, second assay",0.5846
same,OD490 Well 3,"1μM, second assay",0.6145
same,OD490 Mean,"1μM, third assay",0.6182
same,OD490 Well 1,"1μM, third assay",0.6046
same,OD490 Well 2,"1μM, third assay",0.6112
same,OD490 Well 3,"1μM, third assay",0.6387
same,OD490 Mean,"10μM, first assay",0.6584
same,OD490 Well 1,"10μM, first assay",0.6611
same,OD490 Well 2,"10μM, first assay",0.6501
same,OD490 Well 3,"10μM, first assay",0.6639
same,OD490 Mean,"10μM, second assay",0.6246
same,OD490 Well 1,"10μM, second assay",0.6493
same,OD490 Well 2,"10μM, second assay",0.5502
same,OD490 Well 3,"10μM, second assay",0.6742
same,OD490 Mean,"10μM, third assay",0.6177
same,OD490 Well 1,"10μM, third assay",0.6611
same,OD490 Well 2,"10μM, third assay",0.5578
same,OD490 Well 3,"10μM, third assay",0.6341
same,OD490 Mean,"25μM, first assay",0.5948
same,OD490 Well 1,"25μM, first assay",0.6149
same,OD490 Well 2,"25μM, first assay",0.5791
same,OD490 Well 3,"25μM, first assay",0.5903
same,OD490 Mean,"25μM, second assay",0.5865
same,OD490 Well 1,"25μM, second assay",0.5801
same,OD490 Well 2,"25μM, second assay",0.6127
same,OD490 Well 3,"25μM, second assay",0.5666
same,OD490 Mean,"25μM, third assay",0.5866
same,OD490 Well 1,"25μM, third assay",0.5903
same,OD490 Well 2,"25μM, third assay",0.5721
same,OD490 Well 3,"25μM, third assay",0.5974
same,OD490 Mean,"50μM, first assay",0.5045
same,OD490 Well 1,"50μM, first assay",0.5048
same,OD490 Well 2,"50μM, first assay",0.5114
same,OD490 Well 3,"50μM, first assay",0.4972
same,OD490 Mean,"50μM, second assay",0.5178
same,OD490 Well 1,"50μM, second assay",0.4983
same,OD490 Well 2,"50μM, second assay",0.5020
same,OD490 Well 3,"50μM, second assay",0.5531
same,OD490 Mean,"50μM, third assay",0.5361
same,OD490 Well 1,"50μM, third assay",0.6048
same,OD490 Well 2,"50μM, third assay",0.5048
same,OD490 Well 3,"50μM, third assay",0.4988
same,OD490 Mean,"100μM, first assay",0.5483
same,OD490 Well 1,"100μM, first assay",0.6273
same,OD490 Well 2,"100μM, first assay",0.5214
same,OD490 Well 3,"100μM, first assay",0.4962
same,OD490 Mean,"100μM, second assay",0.5031
same,OD490 Well 1,"100μM, second assay",0.5662
same,OD490 Well 2,"100μM, second assay",0.4999
same,OD490 Well 3,"100μM, second assay",0.4431
same,OD490 Mean,"100μM, third assay",0.4792
same,OD490 Well 1,"100μM, third assay",0.5214
same,OD490 Well 2,"100μM, third assay",0.4347
same,OD490 Well 3,"100μM, third assay",0.4814
same,IC50,,108 µM
CCOC(=O)c1[nH]c(C2NC(=O)NC(C)=C2C(=O)Nc2ccccc2OC)c(C(=O)OC)c1C (centres unmarked) [D3],OD490 Mean,"0.5μM, first assay",0.6387
same,OD490 Well 1,"0.5μM, first assay",0.6262
same,OD490 Well 2,"0.5μM, first assay",0.6384
same,OD490 Well 3,"0.5μM, first assay",0.6515
same,OD490 Mean,"0.5μM, second assay",0.7146
same,OD490 Well 1,"0.5μM, second assay",0.7283
same,OD490 Well 2,"0.5μM, second assay",0.7863
same,OD490 Well 3,"0.5μM, second assay",0.6291
same,OD490 Mean,"0.5μM, third assay",0.6707
same,OD490 Well 1,"0.5μM, third assay",0.6256
same,OD490 Well 2,"0.5μM, third assay",0.6879
same,OD490 Well 3,"0.5μM, third assay",0.6985
same,OD490 Mean,"1μM, first assay",0.6598
same,OD490 Well 1,"1μM, first assay",0.6405
same,OD490 Well 2,"1μM, first assay",0.6612
same,OD490 Well 3,"1μM, first assay",0.6777
same,OD490 Mean,"1μM, second assay",0.6524
same,OD490 Well 1,"1μM, second assay",0.6596
same,OD490 Well 2,"1μM, second assay",0.7226
same,OD490 Well 3,"1μM, second assay",0.5749
same,OD490 Mean,"1μM, third assay",0.7014
same,OD490 Well 1,"1μM, third assay",0.6954
same,OD490 Well 2,"1μM, third assay",0.6888
same,OD490 Well 3,"1μM, third assay",0.7201
same,OD490 Mean,"10μM, first assay",0.6769
same,OD490 Well 1,"10μM, first assay",0.6754
same,OD490 Well 2,"10μM, first assay",0.6571
same,OD490 Well 3,"10μM, first assay",0.6982
same,OD490 Mean,"10μM, second assay",0.7108
same,OD490 Well 1,"10μM, second assay",0.7146
same,OD490 Well 2,"10μM, second assay",0.7063
same,OD490 Well 3,"10μM, second assay",0.7114
same,OD490 Mean,"10μM, third assay",0.7093
same,OD490 Well 1,"10μM, third assay",0.6912
same,OD490 Well 2,"10μM, third assay",0.7365
same,OD490 Well 3,"10μM, third assay",0.7003
same,OD490 Mean,"25μM, first assay",0.6846
same,OD490 Well 1,"25μM, first assay",0.6410
same,OD490 Well 2,"25μM, first assay",0.7249
same,OD490 Well 3,"25μM, first assay",0.6880
same,OD490 Mean,"25μM, second assay",0.6529
same,OD490 Well 1,"25μM, second assay",0.662
same,OD490 Well 2,"25μM, second assay",0.6871
same,OD490 Well 3,"25μM, second assay",0.6097
same,OD490 Mean,"25μM, third assay",0.6888
same,OD490 Well 1,"25μM, third assay",0.6989
same,OD490 Well 2,"25μM, third assay",0.6784
same,OD490 Well 3,"25μM, third assay",0.6891
same,OD490 Mean,"50μM, first assay",0.7773
same,OD490 Well 1,"50μM, first assay",0.7708
same,OD490 Well 2,"50μM, first assay",0.7874
same,OD490 Well 3,"50μM, first assay",0.7736
same,OD490 Mean,"50μM, second assay",0.7093
same,OD490 Well 1,"50μM, second assay",0.7521
same,OD490 Well 2,"50μM, second assay",0.7258
same,OD490 Well 3,"50μM, second assay",0.6501
same,OD490 Mean,"50μM, third assay",0.7169
same,OD490 Well 1,"50μM, third assay",0.6532
same,OD490 Well 2,"50μM, third assay",0.7354
same,OD490 Well 3,"50μM, third assay",0.7621
same,OD490 Mean,"100μM, first assay",0.5588
same,OD490 Well 1,"100μM, first assay",0.5950
same,OD490 Well 2,"100μM, first assay",0.5357
same,OD490 Well 3,"100μM, first assay",0.5456
same,OD490 Mean,"100μM, second assay",0.7013
same,OD490 Well 1,"100μM, second assay",0.7196
same,OD490 Well 2,"100μM, second assay",0.6757
same,OD490 Well 3,"100μM, second assay",0.7086
same,OD490 Mean,"100μM, third assay",0.7231
same,OD490 Well 1,"100μM, third assay",0.7561
same,OD490 Well 2,"100μM, third assay",0.7145
same,OD490 Well 3,"100μM, third assay",0.6987
same,IC50,,> 150 µM
